Assay results as given in article PMC9862586, “3-(Adenosylthio)benzoic Acid Derivatives as SARS-CoV-2 Nsp14 Methyltransferase Inhibitors” (Molecules, 2023).

Legend:
Assay in all cases: HTRF methyltransferase assay (SAM to SAH)
Format in all cases: biochemical
[1] = target: T1, SARS-CoV-2 nsp14 guanine-N7-methyltransferase (Severe acute respiratory syndrome coronavirus 2, UniProt P0DTD1)
T1 construct: gene rep
Source text: HTRF methyltransferase assay (SAM to SAH) on SARS-CoV-2 nsp14 guanine-N7-methyltransferase

[2] = target: T2, human glycine N-methyltransferase (hGNMT) (Homo sapiens, UniProt Q14749)
T2 construct: gene GNMT; commercial protein (MyBioSource); homotetramer by known biology
T2 sequence (Q14749 2-295): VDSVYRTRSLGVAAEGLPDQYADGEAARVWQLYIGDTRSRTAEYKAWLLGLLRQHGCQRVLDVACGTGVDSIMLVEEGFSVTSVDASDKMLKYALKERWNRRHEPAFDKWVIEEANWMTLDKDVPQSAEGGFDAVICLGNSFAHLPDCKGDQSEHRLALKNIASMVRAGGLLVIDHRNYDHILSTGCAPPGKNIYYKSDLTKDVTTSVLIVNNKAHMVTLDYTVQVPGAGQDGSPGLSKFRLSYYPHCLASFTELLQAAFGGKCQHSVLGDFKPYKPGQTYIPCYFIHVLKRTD
Source text: HTRF methyltransferase assay (SAM to SAH) on human glycine N-methyltransferase (hGNMT)

[3] = target: T3, nsp16/nsp10 (Severe acute respiratory syndrome coronavirus 2, UniProt P0DTD1); settings: read-out: SARS-CoV-2 / nsp16/nsp10, IC50
T3 construct: gene rep
Source text: HTRF methyltransferase assay (SAM to SAH) on nsp16/nsp10

Compound	IC50 [1]	IC50 [2]	IC50 [3]
Nc1ncnc2c1ncn2[C@@H]1O[C@H](CSCc2cc(C#CCO)cc(C(=O)O)c2)[C@@H](O)[C@H]1O [5v, 3-(((Adenosyl)thio)methyl)-5-(3-hydroxyprop-1-yn-1-yl)benzoic acid]	12 ± 0.6 nM	9.8 ± 0.5 nM	–
Nc1ncnc2c1ncn2[C@@H]1O[C@H](CSc2ccc(-c3ccccc3)c(C(=O)O)c2)[C@@H](O)[C@H]1O [10e, 4-((Adenosyl)thio)-[1,1′-biphenyl]-2-carboxylic acid]	25 ± 2 nM	24 ± 1 nM	–
CS(=O)(=O)c1cccc(CSC[C@H]2O[C@@H](n3cnc4c(N)ncnc43)[C@H](O)[C@@H]2O)c1 [5i, 5′-((3-(Methylsulfonyl)benzyl)thio)-5′-deoxyadenosine]	270 ± 20 nM	250 ± 20 nM	–
Nc1ncnc2c1ncn2[C@@H]1O[C@H](CSCc2cccc(CC(=O)O)c2)[C@@H](O)[C@H]1O [5d, 2-(3-(((Adenosyl)thio)methyl)phenyl)acetic acid]	680 ± 30 nM	400 ± 30 nM	1840 ± 90 nM
CNS(=O)(=O)c1cccc(CSC[C@H]2O[C@@H](n3cnc4c(N)ncnc43)[C@H](O)[C@@H]2O)c1 [5j, 3-(((Adenosyl)thio)methyl)-N-methylbenzenesulfonamide]	400 ± 19 nM	350 ± 17 nM	–
Nc1ncnc2c1ncn2[C@@H]1O[C@H](CSCc2cccc(O)c2)[C@@H](O)[C@H]1O [5e, 5′-(((3-Hydroxy)benzyl)thio)-5′-deoxyadenosine]	–	600 ± 30 nM	–
Nc1ncnc2c1ncn2[C@@H]1O[C@H](CSCc2cccc(CO)c2)[C@@H](O)[C@H]1O [5f, 5′-(((3-Hydroxymethyl)benzyl)thio)-5′-deoxyadenosine]	740 ± 40 nM	1200 ± 100 nM	–
Nc1ncnc2c1ncn2[C@@H]1O[C@H](CSCc2ccc(F)c(C(=O)O)c2)[C@@H](O)[C@H]1O [5n, 5-(((Adenosyl)thio)methyl)-2-fluorobenzoic acid]	16 ± 2 nM	6.1 ± 0.3 nM	–
Nc1ncnc2c1ncn2[C@@H]1O[C@H](CSCc2ccc(C(=O)O)cc2)[C@@H](O)[C@H]1O [5a, 4-(((Adenosyl)thio)methyl)benzoic acid]	500 ± 30 nM	400 ± 40 nM	1450 ± 70 nM
Nc1ncnc2c1ncn2[C@@H]1O[C@H](CSCc2cccc(-c3nn[nH]n3)c2)[C@@H](O)[C@H]1O [5h, 5′-((3-(Tetrazolyl)benzyl)thio)-5′-deoxyadenosine]	340 ± 12 nM	220 ± 9 nM	–
Nc1ncnc2c1ncn2[C@@H]1O[C@H](CSCc2cc(C(=O)O)cc(-c3ccccc3)c2)[C@@H](O)[C@H]1O [5p, 5-(((Adenosyl)thio)methyl)-[1,1′-biphenyl]-3-carboxylic acid]	0.58 ± 0.03 nM	0.97 ± 0.05 nM	–
Nc1ncnc2c1ncn2[C@@H]1O[C@H](CSCc2ccc(-c3ccccc3)c(C(=O)O)c2)[C@@H](O)[C@H]1O [5r, 4-(((Adenosyl)thio)methyl)-[1,1′-biphenyl]-2-carboxylic acid]	36 ± 1.8 nM	10 ± 0.5 nM	–
COC(=O)c1cccc(CSC[C@H]2O[C@@H](n3cnc4c(N)ncnc43)[C@H](O)[C@@H]2O)c1 [5k, Methyl 3-(((adenosyl)thio)methyl)benzoate]	1350 ± 70 nM	870 ± 50 nM	–
Nc1ncnc2c1ncn2[C@@H]1O[C@H](CSc2cc(C(=O)O)ccc2Cl)[C@@H](O)[C@H]1O [10b, 4-Chloro-5-((adenosyl)thio)benzoic acid]	1300 ± 60 nM	330 ± 20 nM	2300 ± 120 nM
Nc1ncnc2c1ncn2[C@@H]1O[C@H](CSc2ccc(C(=O)O)c(-c3ccccc3)c2)[C@@H](O)[C@H]1O [10f, 5-((Adenosyl)thio)-[1,1′-biphenyl]-2-carboxylic acid]	420 ± 19 nM	210 ± 10 nM	–
Nc1ncnc2c1ncn2[C@@H]1O[C@H](CSCc2ccc(Cl)c(C(=O)O)c2)[C@@H](O)[C@H]1O [5m, 5-(((Adenosyl)thio)methyl)-2-chlorobenzoic acid]	7.7 ± 0.4 nM	6.6 ± 0.3 nM	–
CS(=O)(=O)Nc1cccc(CSC[C@H]2O[C@@H](n3cnc4c(N)ncnc43)[C@H](O)[C@@H]2O)c1 [5c, N-(3-(((Adenosyl)thio)methyl)phenyl)methanesulfonamide]	280 ± 20 nM	250 ± 20 nM	480 ± 30 nM
Nc1ncnc2c1ncn2[C@@H]1O[C@H](CSCc2cc(C(=O)O)cc(-c3ccc(O)cc3)c2)[C@@H](O)[C@H]1O [5t, 5-(((Adenosyl)thio)methyl)-4′-hydroxy-[1,1′-biphenyl]-3-carboxylic acid]	4.2 ± 0.2 nM	4.5 ± 0.2 nM	–
Nc1ncnc2c1ncn2[C@@H]1O[C@H](CSc2ccc(Cl)c(C(=O)O)c2)[C@@H](O)[C@H]1O [10a, 2-Chloro-5-((adenosyl)thio)benzoic acid]	20 ± 2 nM	13 ± 2 nM	30 ± 4 nM
Nc1ncnc2c1ncn2[C@@H]1O[C@H](CSc2ccc(Br)c(C(=O)O)c2)[C@@H](O)[C@H]1O [10c, 2-Bromo-5-((adenosyl)thio)benzoic acid]	24 ± 2 nM	8.2 ± 0.4 nM	–
N#Cc1cccc(CSC[C@H]2O[C@@H](n3cnc4c(N)ncnc43)[C@H](O)[C@@H]2O)c1 [5g, 3-(((Adenosyl)thio)methyl)benzonitrile]	351 ± 28 nM	724 ± 58 nM	–
CNC(=O)c1cccc(CSC[C@H]2O[C@@H](n3cnc4c(N)ncnc43)[C@H](O)[C@@H]2O)c1 [5l, 3-(((Adenosyl)thio)methyl)-N-methylbenzamide]	2790 ± 140 nM	2780 ± 130 nM	–
COc1ccc(SC[C@H]2O[C@@H](n3cnc4c(N)ncnc43)[C@H](O)[C@@H]2O)cc1C(=O)O [10d, 2-Methoxy-5-((adenosyl)thio)benzoic acid]	17 ± 0.9 nM	13 ± 0.6 nM	–
Nc1ncnc2c1ncn2[C@@H]1O[C@H](CSCc2cc(Cl)cc(C(=O)O)c2)[C@@H](O)[C@H]1O [5o, 3-(((Adenosyl)thio)methyl)-5-chlorobenzoic acid]	24 ± 1.2 nM	15 ± 0.7 nM	–
